# Measured values taken from patent US9850283B2, “Macrocyclic inhibitors of the PD-1/PD-L1 and CD80(B7-1)/PD-L1 protein/protein interactions” (BRISTOL-MYERS SQUIBB COMPANY, priority 2013, dated 2017).
# Positions of bridges follow the written chain, without caps; N, C: chain ends. Non-standard residues stand in square brackets, D forms with d. Residues, ends and D or L forms follow the SMILES beside them. Hyp = O=C(O)[C@@H]1C[C@@H](O)CN1; NMeNle = CCCC[C@H](NC)C(=O)O; NMeA = CN[C@@H](C)C(=O)O; Orn = NCCC[C@H](N)C(=O)O; Dab = NCC[C@H](N)C(=O)O; Dap = NC[C@H](N)C(=O)O
# Key:
# [1] = molecular target: T1, LK35.2-hPD-L1 cells / PE-labeled PD-1-Ig (Homo sapiens, UniProt Q9NZQ7); assay: LK35.2-hPD-L1 cell binding high-content screening assay; type: cell-based; details: cell binding assay, cell line not given; cluster symbol; read-out: CBA IC50 cluster
# T1 construct: expressed in transfected cells; host or cells: LK35.2 mouse B cell line
# T1 sequence (Q9NZQ7 19-290): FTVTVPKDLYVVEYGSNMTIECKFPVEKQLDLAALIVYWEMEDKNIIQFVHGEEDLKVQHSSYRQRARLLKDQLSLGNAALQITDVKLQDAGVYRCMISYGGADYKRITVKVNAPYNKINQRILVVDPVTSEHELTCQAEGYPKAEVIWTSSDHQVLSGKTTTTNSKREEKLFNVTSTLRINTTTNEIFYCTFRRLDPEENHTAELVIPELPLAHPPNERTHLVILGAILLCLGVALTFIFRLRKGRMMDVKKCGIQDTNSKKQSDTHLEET
# In short: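 Mouse LK35.2 B cells stably over-expressing human PD-L1, cultured overnight, treated with compound plus PE-labeled human PD-1-Ig (1 nM final) in RPMI/10% FCS for 1 h at 37 °C. After washing, bound fluorescence quantified by high-content imaging.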
# Human PD-L1/PD-1 = molecular target: T2, Human PD-L1/PD-1 (Homo sapiens, UniProt Q9NZQ7); assay: HTRF PD-1-Ig/PD-L1-His binding assay (human PD-L1); details: cluster symbol; read-out: HTRF IC50 cluster
# T2 construct: made in house; host or cells: HEK293T
# T2 sequence (Q9NZQ7 with tags, fused parts or gaps): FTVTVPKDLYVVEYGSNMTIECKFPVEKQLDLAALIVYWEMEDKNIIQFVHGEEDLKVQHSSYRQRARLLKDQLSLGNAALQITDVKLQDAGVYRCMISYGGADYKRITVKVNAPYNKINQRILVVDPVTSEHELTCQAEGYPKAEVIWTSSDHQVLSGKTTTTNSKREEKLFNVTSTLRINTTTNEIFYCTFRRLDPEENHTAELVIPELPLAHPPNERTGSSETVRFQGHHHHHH
# In short: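 HTRF read-out: Eu cryptate anti-Ig mAb 1 nM final, APC anti-His mAb 20 nM final, added over the binding reaction. Proteins were PD-1-Ig and PD-L1-His ectodomain fusions. Buffer was dPBS, 0.1% BSA, 0.05% Tween-20.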
Structure (SMILES),IC50 [1],IC50 (Human PD-L1/PD-1)
CCCC[C@H]1C(=O)N(C)[C@@H](CCCC)C(=O)N[C@@H](CCC(=O)O)C(=O)N[C@H](C(=O)NCC(N)=O)CSCC(=O)N[C@@H](Cc2ccc(O)cc2)C(=O)N(C)[C@@H](C)C(=O)N[C@@H](CC(N)=O)C(=O)N2CCC[C@H]2C(=O)N[C@@H](Cc2c[nH]cn2)C(=O)N[C@@H](CCCCN)C(=O)N2C[C@H](O)C[C@H]2C(=O)N[C@@H](Cc2c[nH]c3ccccc23)C(=O)N[C@@H](CCCCN)C(=O)N[C@@H](Cc2c[nH]c3ccccc23)C(=O)N1C [Example 5100] ({CH2CO}-Y[NMeA]NPHK[Hyp]WKW[NMeNle][NMeNle]ECG-NH2; thioether N-14),0.158 to 4.71 nM,6.76 to 30.3 nM
CCCC[C@H]1C(=O)N(C)[C@@H](CCCC)C(=O)N[C@@H](CN)C(=O)N[C@H](C(=O)NCC(N)=O)CSCC(=O)N[C@@H](Cc2ccc(O)cc2)C(=O)N(C)[C@@H](C)C(=O)N[C@@H](CC(=O)O)C(=O)N2CCC[C@H]2C(=O)N[C@@H](Cc2c[nH]cn2)C(=O)N[C@@H](CCC(N)=O)C(=O)N2C[C@H](O)C[C@H]2C(=O)N[C@@H](Cc2c[nH]c3ccccc23)C(=O)N[C@@H](CO)C(=O)N[C@@H](Cc2c[nH]c3ccccc23)C(=O)N1C [Example 5101] ({CH2CO}-Y[NMeA]DPHQ[Hyp]WSW[NMeNle][NMeNle][Dap]CG-NH2; thioether N-14),0.158 to 4.71 nM,0.385 to 6.74 nM
CCCC[C@H]1C(=O)N(C)[C@@H](CCCC)C(=O)N[C@@H](CCN)C(=O)N[C@H](C(=O)NCC(N)=O)CSCC(=O)N[C@@H](Cc2ccc(O)cc2)C(=O)N(C)[C@@H](C)C(=O)N[C@@H](CCN)C(=O)N2CCC[C@H]2C(=O)N[C@@H](Cc2c[nH]cn2)C(=O)N[C@@H](CCC(=O)O)C(=O)N2C[C@H](O)C[C@H]2C(=O)N[C@@H](Cc2c[nH]c3ccccc23)C(=O)N[C@@H](CCN)C(=O)N[C@@H](Cc2c[nH]c3ccccc23)C(=O)N1C [Example 5104] ({CH2CO}-Y[NMeA][Dab]PHE[Hyp]W[Dab]W[NMeNle][NMeNle][Dab]CG-NH2; thioether N-14),0.158 to 4.71 nM,0.385 to 6.74 nM
CCCC[C@H]1C(=O)N(C)[C@@H](CCCC)C(=O)N[C@@H](CCCNC(=N)N)C(=O)N[C@H](C(=O)NCC(N)=O)CSCC(=O)N[C@@H](Cc2ccc(O)cc2)C(=O)N(C)[C@@H](C)C(=O)N[C@@H](CCCN)C(=O)N2CCC[C@H]2C(=O)N[C@@H](Cc2c[nH]cn2)C(=O)N[C@@H](CC(=O)O)C(=O)N2C[C@H](O)C[C@H]2C(=O)N[C@@H](Cc2c[nH]c3ccccc23)C(=O)N[C@@H](CO)C(=O)N[C@@H](Cc2c[nH]c3ccccc23)C(=O)N1C [Example 5105] ({CH2CO}-Y[NMeA][Orn]PHD[Hyp]WSW[NMeNle][NMeNle]RCG-NH2; thioether N-14),4.78 to 72.9 nM,6.76 to 30.3 nM
CCCC[C@H]1C(=O)N(C)[C@@H](CCCC)C(=O)N[C@@H](CCC(=O)O)C(=O)N[C@H](C(=O)NCC(N)=O)CSCC(=O)N[C@@H](Cc2ccc(O)cc2)C(=O)N(C)[C@@H](C)C(=O)N[C@@H](CC(N)=O)C(=O)N2CCC[C@H]2C(=O)N[C@@H](Cc2c[nH]cn2)C(=O)N[C@@H](CCC(N)=O)C(=O)N2C[C@H](O)C[C@H]2C(=O)N[C@@H](Cc2c[nH]c3ccccc23)C(=O)N[C@@H](CCCCN)C(=O)N[C@@H](Cc2c[nH]c3ccccc23)C(=O)N1C [Example 5106] ({CH2CO}-Y[NMeA]NPHQ[Hyp]WKW[NMeNle][NMeNle]ECG-NH2; thioether N-14),0.158 to 4.71 nM,0.385 to 6.74 nM
CCCC[C@H]1C(=O)N(C)[C@@H](CCCC)C(=O)N[C@@H](CO)C(=O)N[C@H](C(=O)NCC(N)=O)CSCC(=O)N[C@@H](Cc2ccc(O)cc2)C(=O)N(C)[C@@H](C)C(=O)N[C@@H](CCN)C(=O)N2CCC[C@H]2C(=O)N[C@@H](Cc2c[nH]cn2)C(=O)N[C@@H](CCC(=O)O)C(=O)N2C[C@H](O)C[C@H]2C(=O)N[C@@H](Cc2c[nH]c3ccccc23)C(=O)N[C@@H](CO)C(=O)N[C@@H](Cc2c[nH]c3ccccc23)C(=O)N1C [Example 5108] ({CH2CO}-Y[NMeA][Dab]PHE[Hyp]WSW[NMeNle][NMeNle]SCG-NH2; thioether N-14),4.78 to 72.9 nM,6.76 to 30.3 nM
CCCC[C@H]1C(=O)N(C)[C@@H](CCCC)C(=O)N[C@@H](CCCNC(=N)N)C(=O)N[C@H](C(=O)NCC(N)=O)CSCC(=O)N[C@@H](Cc2ccc(O)cc2)C(=O)N(C)[C@@H](C)C(=O)N[C@@H](CC(=O)O)C(=O)N2CCC[C@H]2C(=O)N[C@@H](Cc2c[nH]cn2)C(=O)N[C@@H](CCCCN)C(=O)N2C[C@H](O)C[C@H]2C(=O)N[C@@H](Cc2c[nH]c3ccccc23)C(=O)N[C@@H](CCCCN)C(=O)N[C@@H](Cc2c[nH]c3ccccc23)C(=O)N1C [Example 5110] ({CH2CO}-Y[NMeA]DPHK[Hyp]WKW[NMeNle][NMeNle]RCG-NH2; thioether N-14),0.158 to 4.71 nM,0.385 to 6.74 nM
CCCC[C@H]1C(=O)N(C)[C@@H](CCCC)C(=O)N[C@@H](CCC(=O)O)C(=O)N[C@H](C(=O)NCC(N)=O)CSCC(=O)N[C@@H](Cc2ccc(O)cc2)C(=O)N(C)[C@@H](C)C(=O)N[C@@H](CCN)C(=O)N2CCC[C@H]2C(=O)N[C@@H](Cc2c[nH]cn2)C(=O)N[C@@H](CCC(=O)O)C(=O)N2C[C@H](O)C[C@H]2C(=O)N[C@@H](Cc2c[nH]c3ccccc23)C(=O)N[C@@H](CCCCN)C(=O)N[C@@H](Cc2c[nH]c3ccccc23)C(=O)N1C [Example 5112] ({CH2CO}-Y[NMeA][Dab]PHE[Hyp]WKW[NMeNle][NMeNle]ECG-NH2; thioether N-14),0.158 to 4.71 nM,0.385 to 6.74 nM
CCCC[C@H]1C(=O)N(C)[C@@H](CCCC)C(=O)N[C@@H](CCCNC(=N)N)C(=O)N[C@H](C(=O)NCC(N)=O)CSCC(=O)N[C@@H](Cc2ccc(O)cc2)C(=O)N(C)[C@@H](C)C(=O)N[C@@H](CCCN)C(=O)N2CCC[C@H]2C(=O)N[C@@H](Cc2c[nH]cn2)C(=O)N[C@@H](CCC(=O)O)C(=O)N2C[C@H](O)C[C@H]2C(=O)N[C@@H](Cc2c[nH]c3ccccc23)C(=O)N[C@@H](CO)C(=O)N[C@@H](Cc2c[nH]c3ccccc23)C(=O)N1C [Example 5113] ({CH2CO}-Y[NMeA][Orn]PHE[Hyp]WSW[NMeNle][NMeNle]RCG-NH2; thioether N-14),0.158 to 4.71 nM,0.385 to 6.74 nM

# Other lines, results leading:
IC50 [1],IC50 (Human PD-L1/PD-1),Structure (SMILES)
4.78 to 72.9 nM,6.76 to 30.3 nM,CCCC[C@H]1C(=O)N(C)[C@@H](CCCC)C(=O)N[C@@H](CCCNC(=N)N)C(=O)N[C@H](C(=O)NCC(N)=O)CSCC(=O)N[C@@H](Cc2ccc(O)cc2)C(=O)N(C)[C@@H](C)C(=O)N[C@@H](CCCCN)C(=O)N2CCC[C@H]2C(=O)N[C@@H](Cc2c[nH]cn2)C(=O)N[C@@H](CC(=O)O)C(=O)N2C[C@H](O)C[C@H]2C(=O)N[C@@H](Cc2c[nH]c3ccccc23)C(=O)N[C@@H](CO)C(=O)N[C@@H](Cc2c[nH]c3ccccc23)C(=O)N1C [Example 5102] ({CH2CO}-Y[NMeA]KPHD[Hyp]WSW[NMeNle][NMeNle]RCG-NH2; thioether N-14)
4.78 to 72.9 nM,6.76 to 30.3 nM,CCCC[C@H]1C(=O)N(C)[C@@H](CCCC)C(=O)N[C@@H](CC(=O)O)C(=O)N[C@H](C(=O)NCC(N)=O)CSCC(=O)N[C@@H](Cc2ccc(O)cc2)C(=O)N(C)[C@@H](C)C(=O)N[C@@H](CC(N)=O)C(=O)N2CCC[C@H]2C(=O)N[C@@H](Cc2c[nH]cn2)C(=O)N[C@@H](CCC(N)=O)C(=O)N2C[C@H](O)C[C@H]2C(=O)N[C@@H](Cc2c[nH]c3ccccc23)C(=O)N[C@@H](CO)C(=O)N[C@@H](Cc2c[nH]c3ccccc23)C(=O)N1C [Example 5103] ({CH2CO}-Y[NMeA]NPHQ[Hyp]WSW[NMeNle][NMeNle]DCG-NH2; thioether N-14)
4.78 to 72.9 nM,6.76 to 30.3 nM,CCCC[C@H]1C(=O)N(C)[C@@H](CCCC)C(=O)N[C@@H](CC(C)C)C(=O)N[C@H](C(=O)NCC(N)=O)CSCC(=O)N[C@@H](Cc2ccc(O)cc2)C(=O)N(C)[C@@H](C)C(=O)N[C@@H](CCN)C(=O)N2CCC[C@H]2C(=O)N[C@@H](Cc2c[nH]cn2)C(=O)N[C@@H](CCC(=O)O)C(=O)N2C[C@H](O)C[C@H]2C(=O)N[C@@H](Cc2c[nH]c3ccccc23)C(=O)N[C@@H](C(C)C)C(=O)N[C@@H](Cc2c[nH]c3ccccc23)C(=O)N1C [Example 5107] ({CH2CO}-Y[NMeA][Dab]PHE[Hyp]WVW[NMeNle][NMeNle]LCG-NH2; thioether N-14)
0.158 to 4.71 nM,0.385 to 6.74 nM,CCCC[C@H]1C(=O)N(C)[C@@H](CCCC)C(=O)N[C@@H](CC(C)C)C(=O)N[C@H](C(=O)NCC(N)=O)CSCC(=O)N[C@@H](Cc2ccc(O)cc2)C(=O)N(C)[C@@H](C)C(=O)N[C@@H](CC(N)=O)C(=O)N2CCC[C@H]2C(=O)N[C@@H](Cc2c[nH]cn2)C(=O)N[C@@H](CCC(N)=O)C(=O)N2C[C@H](O)C[C@H]2C(=O)N[C@@H](Cc2c[nH]c3ccccc23)C(=O)NCC(=O)N[C@@H](Cc2c[nH]c3ccccc23)C(=O)N1C [Example 5109] ({CH2CO}-Y[NMeA]NPHQ[Hyp]WGW[NMeNle][NMeNle]LCG-NH2; thioether N-14)
4.78 to 72.9 nM,6.76 to 30.3 nM,CCCC[C@H]1C(=O)N(C)[C@@H](CCCC)C(=O)N[C@@H](CCC(=O)O)C(=O)N[C@H](C(=O)NCC(N)=O)CSCC(=O)N[C@@H](Cc2ccc(O)cc2)C(=O)N(C)[C@@H](C)C(=O)N[C@@H](CCN)C(=O)N2CCC[C@H]2C(=O)N[C@@H](Cc2c[nH]cn2)C(=O)N[C@@H](CCC(=O)O)C(=O)N2C[C@H](O)C[C@H]2C(=O)N[C@@H](Cc2c[nH]c3ccccc23)C(=O)N[C@@H](CO)C(=O)N[C@@H](Cc2c[nH]c3ccccc23)C(=O)N1C [Example 5111] ({CH2CO}-Y[NMeA][Dab]PHE[Hyp]WSW[NMeNle][NMeNle]ECG-NH2; thioether N-14)
